Values of other authors, collected in patent publication US20150275270A1, “COMPOSITIONS AND METHODS FOR THE ANALYSIS OF DEGRADED NUCLEIC ACIDS” (ALTHEADX, INC., priority 2005, published 2015).

Conditions: clinical studies / post-marketing reports

Structure (SMILES) | drug-induced hepatotoxicity (clinical reports)
Cc1c(C)c2c(c(C)c1O)CCC(C)(COc1ccc(CC3SC(=O)NC3=O)cc1)O2 (stereo not drawn) [Troglitazone, troglitazone] | severe idiosyncratic hepatocellular injury
CCc1ccc(CCOc2ccc(CC3SC(=O)NC3=O)cc2)nc1 (stereo not drawn) [pioglitazone] | no evidence of drug-induced hepatotoxicity
CN(CCOc1ccc(CC2SC(=O)NC2=O)cc1)c1ccccn1 (stereo not drawn) [rosiglitazone] | no evidence of drug-induced hepatotoxicity
